Experimental data from PubChem BioAssay AID1963869 (Molecular Pharmacology Branch, DTP, NCI, 2024).

System: KRAS patient-derived spheroids with HUVEC/MSC, viability
Assay: Anticancer human tumor 323965-272-R-J2-PDC patient-derived pancreatic carcinoma cell line growth inhibition [KRAS2]
Settings: for IC50: curve of first compound; for viability, T/C: stronger effect = lower value
Outline: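 Combination screen of spheroid viability in tumor-cell co-cultures with endothelial (HUVEC) and mesenchymal stem cell stroma. Each agent was tested in half-log dilutions, topping at clinical Cmax or at 10 microM without a known Cmax.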

[1] = second compound 0.1 µM, first compound 0.01 µM
[2] = second compound 0.1 µM, first compound 0.0316 µM
[3] = second compound 0.1 µM, first compound 0.1 µM
[4] = second compound 0.1 µM, first compound 0.316 µM
[5] = second compound 0.1 µM, first compound 1 µM
[6] = second compound 0.1 µM, first compound 3.16 µM
[7] = second compound 0.316 µM, first compound 0.01 µM
[8] = second compound 0.316 µM, first compound 0.0316 µM
[9] = second compound 0.316 µM, first compound 0.1 µM
[10] = second compound 0.316 µM, first compound 0.316 µM
[11] = second compound 0.316 µM, first compound 1 µM
[12] = second compound 0.316 µM, first compound 3.16 µM
[13] = second compound 1 µM, first compound 0.01 µM
[14] = second compound 1 µM, first compound 0.0316 µM
[15] = second compound 1 µM, first compound 0.1 µM
[16] = second compound 1 µM, first compound 0.316 µM
[17] = second compound 1 µM, first compound 1 µM
[18] = second compound 1 µM, first compound 3.16 µM
[19] = second compound 3.16 µM, first compound 0.01 µM
[20] = second compound 3.16 µM, first compound 0.0316 µM
[21] = second compound 3.16 µM, first compound 0.1 µM
[22] = second compound 3.16 µM, first compound 0.316 µM
[23] = second compound 3.16 µM, first compound 1 µM
[24] = second compound 3.16 µM, first compound 3.16 µM
[25] = second compound 10 µM, first compound 0.01 µM
[26] = second compound 10 µM, first compound 0.0316 µM
[27] = second compound 10 µM, first compound 0.1 µM
[28] = second compound 10 µM, first compound 0.316 µM
[29] = second compound 10 µM, first compound 1 µM
[30] = second compound 10 µM, first compound 3.16 µM
[31] = second compound 0.1 µM, first compound 10 µM
[32] = second compound 0.316 µM, first compound 10 µM
[33] = second compound 1 µM, first compound 10 µM
[34] = second compound 3.16 µM, first compound 10 µM
[35] = second compound 10 µM, first compound 10 µM
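Also: spheroids exposed to agents for 7 days.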
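For viability, T/C in this document: 100% = DMSO vehicle control viability.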

CC1COCCN1c1cc(-c2ccnn2C)c2ccnc(-c3ccn[nH]3)c2n1 (stereo not given) + CNCc1ccccc1-c1csc(C(C)Nc2nc(C)nc3cc(OC)c(OC)cc23)c1
IC50 (second compound 0.1 µM): 20.7 nM | IC50 (second compound 0.316 µM): 21.4 nM | IC50 (second compound 1 µM): 22.3 nM | IC50 (second compound 3.16 µM): 12.8 nM | IC50 (second compound 10 µM): < 10 nM | viability, T/C [1]: 71.4% | viability, T/C [2]: 37.6% | viability, T/C [3]: 22.5% | viability, T/C [4]: 20.1% | viability, T/C [5]: 18.2% | viability, T/C [6]: 17.9% | viability, T/C [7]: 77.8% | viability, T/C [8]: 35.8% | viability, T/C [9]: 20.4% | viability, T/C [10]: 19% | viability, T/C [11]: 16.1% | viability, T/C [12]: 17.1% | viability, T/C [13]: 85.8% | viability, T/C [14]: 34.3% | viability, T/C [15]: 17.9% | viability, T/C [16]: 17.2% | viability, T/C [17]: 14.9% | viability, T/C [18]: 16.1% | viability, T/C [19]: 57.1% | viability, T/C [20]: 24.2% | viability, T/C [21]: 5.14% | viability, T/C [22]: 4.3% | viability, T/C [23]: 7.85% | viability, T/C [24]: 8.8% | viability, T/C [25]: 0.18% | viability, T/C [26]: 0.13% | viability, T/C [27]: 0.13% | viability, T/C [28]: 0.12% | viability, T/C [29]: 0.25% | viability, T/C [30]: 0.19%

CC1OCC2(CCN(c3cnc(Sc4ccnc(N)c4Cl)c(N)n3)CC2)C1N (stereo not given) + CNCc1ccccc1-c1csc(C(C)Nc2nc(C)nc3cc(OC)c(OC)cc23)c1
IC50 (second compound 0.1 µM): 404 nM | IC50 (second compound 0.316 µM): 202 nM | IC50 (second compound 1 µM): 548 nM | IC50 (second compound 3.16 µM): 351 nM | IC50 (second compound 10 µM): < 31.6 nM | viability, T/C [2]: 77.4% | viability, T/C [3]: 65.6% | viability, T/C [4]: 53.4% | viability, T/C [5]: 38.6% | viability, T/C [6]: 28.7% | viability, T/C [31]: 17.8% | viability, T/C [8]: 82.1% | viability, T/C [9]: 55.4% | viability, T/C [10]: 44.1% | viability, T/C [11]: 41.6% | viability, T/C [12]: 27.9% | viability, T/C [32]: 25.9% | viability, T/C [14]: 101% | viability, T/C [15]: 71.9% | viability, T/C [16]: 60.5% | viability, T/C [17]: 40.7% | viability, T/C [18]: 35.1% | viability, T/C [33]: 33.4% | viability, T/C [20]: 83.5% | viability, T/C [21]: 65.8% | viability, T/C [22]: 51.3% | viability, T/C [23]: 40.8% | viability, T/C [24]: 27% | viability, T/C [34]: 25.5% | viability, T/C [26]: 0.33% | viability, T/C [27]: 0.17% | viability, T/C [28]: 0.15% | viability, T/C [29]: 0.14% | viability, T/C [30]: 0.13% | viability, T/C [35]: 0.18%

Cn1nccc1Nc1nccc(-c2cc3c(s2)C(C)(C)N(CCN2CCOCC2)C3=O)n1 + CNCc1ccccc1-c1csc(C(C)Nc2nc(C)nc3cc(OC)c(OC)cc23)c1
IC50 (second compound 0.1 µM): 1050 nM | IC50 (second compound 0.316 µM): 1360 nM | IC50 (second compound 1 µM): 3970 nM | IC50 (second compound 3.16 µM): 1660 nM | IC50 (second compound 10 µM): < 31.6 nM | viability, T/C [2]: 98.5% | viability, T/C [3]: 84.4% | viability, T/C [4]: 64.6% | viability, T/C [5]: 51.3% | viability, T/C [6]: 41% | viability, T/C [31]: 37.2% | viability, T/C [8]: 86.9% | viability, T/C [9]: 79.3% | viability, T/C [10]: 71.9% | viability, T/C [11]: 52.2% | viability, T/C [12]: 41.7% | viability, T/C [32]: 38.1% | viability, T/C [14]: 95.5% | viability, T/C [15]: 89.4% | viability, T/C [16]: 72.8% | viability, T/C [17]: 67.3% | viability, T/C [18]: 48.1% | viability, T/C [33]: 45% | viability, T/C [20]: 92.6% | viability, T/C [21]: 78.5% | viability, T/C [22]: 70% | viability, T/C [23]: 54.9% | viability, T/C [24]: 43.2% | viability, T/C [34]: 30% | viability, T/C [26]: 0.23% | viability, T/C [27]: 0.22% | viability, T/C [28]: 0.19% | viability, T/C [29]: 0.17% | viability, T/C [30]: 0.17% | viability, T/C [35]: 0.19%

CC(=O)OC12COC1CC(O)C1(C)C(=O)C(O)C3=C(C)C(OC(=O)C(O)C(NC(=O)OC(C)(C)C)c4ccccc4)CC(O)(C(OC(=O)c4ccccc4)C21)C3(C)C (stereo not given) + COc1cc2nc(C)nc(NC(C)c3cc(N)cc(C(F)(F)F)c3)c2cc1OC1CCOC1
IC50 (second compound 0.1 µM): < 10 nM | IC50 (second compound 0.316 µM): < 10 nM | IC50 (second compound 1 µM): < 10 nM | IC50 (second compound 3.16 µM): < 10 nM | IC50 (second compound 10 µM): < 10 nM | viability, T/C [1]: 28.6% | viability, T/C [2]: 28.6% | viability, T/C [3]: 23.8% | viability, T/C [4]: 23.2% | viability, T/C [5]: 28.2% | viability, T/C [6]: 25.2% | viability, T/C [7]: 24.2% | viability, T/C [8]: 24.5% | viability, T/C [9]: 21.6% | viability, T/C [10]: 22.4% | viability, T/C [11]: 24.5% | viability, T/C [12]: 25.2% | viability, T/C [13]: 21.6% | viability, T/C [14]: 28% | viability, T/C [15]: 27.6% | viability, T/C [16]: 27.2% | viability, T/C [17]: 30.4% | viability, T/C [18]: 35.3% | viability, T/C [19]: 21.4% | viability, T/C [20]: 20.1% | viability, T/C [21]: 18.8% | viability, T/C [22]: 20.4% | viability, T/C [23]: 20.1% | viability, T/C [24]: 24.3% | viability, T/C [25]: 23.1% | viability, T/C [26]: 21.2% | viability, T/C [27]: 17.8% | viability, T/C [28]: 17.1% | viability, T/C [29]: 21.2% | viability, T/C [30]: 15.8%
